US20250282831A1, “NOVEL PROTEIN AND NUCLEIC ACID SEQUENCES FOR COVID-19 VACCINES” (Dompe' Farmaceutici SPA, priority 2021, published 2025)

Columns and labels:
[1] = system: Osteoclasts from RAW264.7 macrophages; experiment: Estrogen-like activity: TRAP activity by ELISA in osteoclasts; format: cell-based, murine; details: RANKL-differentiated osteoclasts; 24 h; 1 nM Estradiol or 10 ng/ml spike proteins
[2] = system: MCF-7 breast cancer cells; experiment: BrdU proliferation assay in MCF-7 breast cancer cell line; format: cell-based; details: 24 hours
[3] = system: THP-1; experiment: Proteome profile (cytokine array) of conditioned media from differentiated THP-1 cells; format: cell-based, Human

| SMILES | TRAP levels, Mean [1] | cell proliferation, Mean ([2]; peptides 10 ug/ml, spike 10 ng/ml, raloxifene 2 μM) | effect on estradiol- and spike-induced proliferation (in words) ([2]; co-treatment with raloxifene 2 μM) | effect on spike-induced IL-8 up-regulation (in words) [3] | effect on CHI3L1 up-regulation (in words) ([3]; co-treatment with spike and/or estradiol, 24 h) | effect on OPN upregulation (in words) ([3]; co-treatment with spike, 24 h) |
| --- | --- | --- | --- | --- | --- | --- |
| C[C@]12CC[C@@H]3c4ccc(O)cc4CC[C@H]3[C@@H]1CC[C@@H]2O [Estradiol] | 0.25 U/L |  |  |  |  |  |
| O=C(c1ccc(OCCN2CCCCC2)cc1)c1c(-c2ccc(O)cc2)sc2cc(O)ccc12 [ral, Raloxifene] |  | 109.5 percentage of control | counteracted | effective in counteracting the effect of spike | able to counteract only the effects of spike alone | able to counteract the effects of spike alone |
